The record followed here is ChEMBL document CHEMBL3046966, “Structure and Fungicidal Activities of 2-Methoxyimino-N-methyl-2-[2-(substituted pyridyloxymethyl)phenyl]acetamide Derivatives” (1998).

What all share (format): functional
Experiment [1] deals with Pseudoperonospora cubensis. As to the kind of experiment: Fungicidal activity against Pseudoperonospora cubensis assessed as cucumber downy mildew disease control at 125 ppm foliar application 24 hr after inoculation by preventive manner.
Experiment [2] relates to Podosphaera fuliginea. In words: Fungicidal activity against Podosphaera fuligineas assessed as cucumber […] mildew disease control at 7.8 ppm foliar application 24 hr after inoculation by curative manner.
Experiment [3] concerns Botrytis cinerea. In words: Fungicidal activity against Botryotinia fuckeliana assessed as cucumber gray mold disease control at 125 ppm foliar application 24 hr before inoculation by preventive manner.
Experiment [4] deals with Pyricularia oryzae. In words: Fungicidal activity against Magnaporthe oryzae assessed as rice blast disease control at 125 ppm foliar application for 24 hr after inoculation by curative manner.
For experiment [5], the system named is Pseudoperonospora cubensis. As to the kind of experiment: Fungicidal activity against Pseudoperonospora cubensis assessed as cucumber downy mildew disease control at 31.3 ppm foliar application 24 hr after inoculation by curative manner.
Experiment [6] has as its system Blumeria graminis f. sp. tritici. In words: Fungicidal activity against Blumeria graminis f. sp. tritici assessed as wheat powdery mildew disease control at 125 ppm foliar application for 24 hr after inoculation by curative manner.
The subject of experiment [7] is Botrytis cinerea. In words: Fungicidal activity against Botryotinia fuckeliana assessed as cucumber gray mold disease control at 125 ppm foliar application 24 hr after inoculation by curative manner.
Experiment [8] relates to Blumeria graminis f. sp. tritici. In words: Fungicidal activity against Blumeria graminis f. sp. tritici assessed as wheat powdery mildew disease control at 31.3 ppm foliar application for 24 hr before inoculation by preventive manner.
For experiment [9], the system named is Pyricularia oryzae. As to the kind of experiment: Fungicidal activity against Magnaporthe oryzae assessed as rice blast disease control at 125 ppm foliar application for 24 hr before inoculation by preventive manner.
Experiment [10] has as its system Podosphaera fuliginea. In words: Fungicidal activity against Podosphaera fuligineas assessed as cucumber […] mildew disease control at 7.8 ppm foliar application 24 hr before inoculation by preventive manner.
Experiment [11] deals with Pseudoperonospora cubensis. As to the kind of experiment: Fungicidal activity against Pseudoperonospora cubensis assessed as cucumber downy mildew disease control at 7.8 ppm foliar application 24 hr after inoculation by preventive manner.
In experiment [12] the test system is Blumeria graminis f. sp. tritici. As to the kind of experiment: Fungicidal activity against Blumeria graminis f. sp. tritici assessed as wheat powdery mildew disease control at 2 ppm foliar application for 24 hr before inoculation by preventive manner.
Experiment [13] concerns Botrytis cinerea. As to the kind of experiment: Fungicidal activity against Botryotinia fuckeliana assessed as cucumber gray mold disease control at 2 ppm foliar application 24 hr before inoculation by preventive manner.
Experiment [14] deals with Pyricularia oryzae. In words: Fungicidal activity against Magnaporthe oryzae assessed as rice blast disease control at 7.8 ppm foliar application for 24 hr after inoculation by curative manner.
Experiment [15] has as its system Podosphaera fuliginea. In words: Fungicidal activity against Podosphaera fuligineas assessed as cucumber […] mildew disease control at 2 ppm foliar application 24 hr after inoculation by curative manner.
For experiment [16], the system named is Botrytis cinerea. In words: Fungicidal activity against Botryotinia fuckeliana assessed as cucumber gray mold disease control at 2 ppm foliar application 24 hr after inoculation by curative manner.
The test system of experiment [17] is Blumeria graminis f. sp. tritici. In words: Fungicidal activity against Blumeria graminis f. sp. tritici assessed as wheat powdery mildew disease control at 2 ppm foliar application for 24 hr after inoculation by curative manner.
The test system of experiment [18] is Pyricularia oryzae. As to the kind of experiment: Fungicidal activity against Magnaporthe oryzae assessed as rice blast disease control at 7.8 ppm foliar application for 24 hr before inoculation by preventive manner.
Experiment [19] concerns Podosphaera fuliginea. In words: Fungicidal activity against Podosphaera fuligineas assessed as cucumber […] mildew disease control at 2 ppm foliar application 24 hr before inoculation by preventive manner.
The test system of experiment [20] is Pseudoperonospora cubensis. In words: Fungicidal activity against Pseudoperonospora cubensis assessed as cucumber downy mildew disease control at 2 ppm foliar application 24 hr after inoculation by curative manner.
In experiment [21] the test system is Blumeria graminis f. sp. tritici. In words: Fungicidal activity against Blumeria graminis f. sp. tritici assessed as wheat powdery mildew disease control at 7.8 ppm foliar application for 24 hr before inoculation by preventive manner.
The subject of experiment [22] is Pseudoperonospora cubensis. As to the kind of experiment: Fungicidal activity against Pseudoperonospora cubensis assessed as cucumber downy mildew disease control at 2 ppm foliar application 24 hr before inoculation by preventive manner.
The subject of experiment [23] is Pyricularia oryzae. In words: Fungicidal activity against Magnaporthe oryzae assessed as rice blast disease control at 31.3 ppm foliar application for 24 hr after inoculation by curative manner.
Experiment [24] relates to Botrytis cinerea. As to the kind of experiment: Fungicidal activity against Botryotinia fuckeliana assessed as cucumber gray mold disease control at 31.3 ppm foliar application 24 hr before inoculation by preventive manner.
Experiment [25] concerns Botrytis cinerea. In words: Fungicidal activity against Botryotinia fuckeliana assessed as cucumber gray mold disease control at 31.3 ppm foliar application 24 hr after inoculation by curative manner.
In experiment [26] the test system is Blumeria graminis f. sp. tritici. In words: Fungicidal activity against Blumeria graminis f. sp. tritici assessed as wheat powdery mildew disease control at 7.8 ppm foliar application for 24 hr after inoculation by curative manner.
Experiment [27] relates to Pyricularia oryzae. As to the kind of experiment: Fungicidal activity against Magnaporthe oryzae assessed as rice blast disease control at 31.3 ppm foliar application for 24 hr before inoculation by preventive manner.
In experiment [28] the test system is Pseudoperonospora cubensis. In words: Fungicidal activity against Pseudoperonospora cubensis assessed as cucumber downy mildew disease control at 7.8 ppm foliar application 24 hr after inoculation by curative manner.
Experiment [29] deals with Pyricularia oryzae. In words: Fungicidal activity against Magnaporthe oryzae assessed as rice blast disease control at 2 ppm foliar application for 24 hr after inoculation by curative manner.
The subject of experiment [30] is Botrytis cinerea. In words: Fungicidal activity against Botryotinia fuckeliana assessed as cucumber gray mold disease control at 7.8 ppm foliar application 24 hr before inoculation by preventive manner.
Experiment [31] relates to Pseudoperonospora cubensis. In words: Fungicidal activity against Pseudoperonospora cubensis assessed as cucumber downy mildew disease control at 31.3 ppm foliar application 24 hr after inoculation by preventive manner.
In experiment [32] the test system is Pyricularia oryzae. As to the kind of experiment: Fungicidal activity against Magnaporthe oryzae assessed as rice blast disease control at 2 ppm foliar application for 24 hr before inoculation by preventive manner.
Experiment [33] relates to Botrytis cinerea. As to the kind of experiment: Fungicidal activity against Botryotinia fuckeliana assessed as cucumber gray mold disease control at 7.8 ppm foliar application 24 hr after inoculation by curative manner.
The test system of experiment [34] is Podosphaera fuliginea. In words: Fungicidal activity against Podosphaera fuligineas assessed as cucumber […] mildew disease control at 31.3 ppm foliar application 24 hr before inoculation by preventive manner.
Experiment [35] concerns Blumeria graminis f. sp. tritici. In words: Fungicidal activity against Blumeria graminis f. sp. tritici assessed as wheat powdery mildew disease control at 31.3 ppm foliar application for 24 hr after inoculation by curative manner.
The subject of experiment [36] is Podosphaera fuliginea. In words: Fungicidal activity against Podosphaera fuligineas assessed as cucumber […] mildew disease control at 31.3 ppm foliar application 24 hr after inoculation by curative manner.
Experiment [37] has as its system Podosphaera fuliginea. In words: Fungicidal activity against Podosphaera fuligineas assessed as cucumber […] mildew disease control at 125 ppm foliar application 24 hr before inoculation by preventive manner.
Experiment [38] has as its system Blumeria graminis f. sp. tritici. As to the kind of experiment: Fungicidal activity against Blumeria graminis f. sp. tritici assessed as wheat powdery mildew disease control at 125 ppm foliar application for 24 hr before inoculation by preventive manner.

In the case of `CNC(=O)/C(=N/OC)c1ccccc1COc1ccc(C(F)(F)F)c(OC(C)C)n1`, the Activity in experiment [1] is reported as below 90%; with Podosphaera fuliginea [2], 90%; with Botrytis cinerea [3] it was below 90%; with Pyricularia oryzae [4], 90%; in [5], 90%; in [6], 90%. Further, the Activity is recorded as below 90% in the experiment with Botrytis cinerea [7], 90% in experiment [8], 90% in the experiment with Pyricularia oryzae [9] and 90% with Podosphaera fuliginea [10].

On to `CNC(=O)/C(=N/OC)c1ccccc1COc1ncc(C(F)(F)F)cc1Cl`, for which the Activity (in experiment [11]; in experiment [12]; in the experiment with Botrytis cinerea [13]; in the experiment on Pyricularia oryzae [14]; in the experiment on Podosphaera fuliginea [15]; in the experiment on Botrytis cinerea [16]) was 90% throughout. In addition, the Activity (in experiment [17]; in the experiment on Pyricularia oryzae [18]; in the experiment on Podosphaera fuliginea [19]; in experiment [20]) was 90% each time.

For the compound `CNC(=O)/C(=N/OC)c1ccccc1COc1ncc(Cl)cc1Cl`, the Activity (in experiment [21]; in experiment [22]; with Pyricularia oryzae [23]; with Botrytis cinerea [24]; in the experiment on Botrytis cinerea [25]; in the experiment with Podosphaera fuliginea [15]) was 90% throughout. Further, the Activity (in experiment [26]; with Pyricularia oryzae [18]; in the experiment on Podosphaera fuliginea [19]; in experiment [20]) was 90% in each case.

On to `CNC(=O)/C(=N/OC)c1ccccc1COc1cccc(OC)n1`, for which the Activity (in the experiment with Pyricularia oryzae [27]; in experiment [1]; with Podosphaera fuliginea [2]; with Pyricularia oryzae [23]; in the experiment on Botrytis cinerea [3]; in [5]) was 90% in each case. Besides, the Activity (in experiment [26]; with Botrytis cinerea [7]; in experiment [20]; in [8]; with Podosphaera fuliginea [10]) was 90% throughout.

In the case of `CNC(=O)/C(=N/OC)c1ccccc1COc1nc(OC)ccc1C(F)(F)F`, the Activity (in experiment [1]; in [28]; in the experiment on Botrytis cinerea [24]; with Pyricularia oryzae [4]; in the experiment with Podosphaera fuliginea [15]; in [6]) was 90% throughout. Further, the Activity in the experiment on Podosphaera fuliginea [19] was 90%; in the experiment on Botrytis cinerea [7] it was below 90%; in experiment [8] it was 90%; with Pyricularia oryzae [9] it was 90%.

As for `CNC(=O)/C(=N/OC)c1ccccc1COc1ncccc1C(F)(F)F`, the Activity (in the experiment on Pyricularia oryzae [29]; in experiment [12]; in the experiment on Botrytis cinerea [30]; with Podosphaera fuliginea [15]; in the experiment with Botrytis cinerea [16]; in [5]) was 90% throughout. Moreover, the Activity (in experiment [17]; in [31]; with Pyricularia oryzae [32]; in the experiment on Podosphaera fuliginea [10]) was 90% in each case.

`CNC(=O)/C(=N/OC)c1ccccc1COc1ccc(C(F)(F)F)c(Cl)n1`: the Activity (in [21]; in the experiment with Botrytis cinerea [33]; in the experiment with Podosphaera fuliginea [34]; with Botrytis cinerea [30]; in the experiment with Pyricularia oryzae [14]; with Podosphaera fuliginea [15]) was 90% each time. Moreover, the Activity (in experiment [26]; in the experiment on Pyricularia oryzae [18]; in [31]; in [20]) was 90% throughout.

Consider `CNC(=O)/C(=N/OC)c1ccccc1COc1ncc(Cl)cc1C(F)(F)F`, for which the Activity (in experiment [11]; in experiment [12]; in the experiment on Botrytis cinerea [30]; in the experiment with Pyricularia oryzae [14]; in the experiment with Podosphaera fuliginea [15]; in the experiment on Botrytis cinerea [16]) was 90% each time. Further, the Activity (in experiment [17]; in the experiment with Pyricularia oryzae [18]; in the experiment on Podosphaera fuliginea [19]; in [20]) was 90% throughout.

For the compound `CNC(=O)/C(=N/OC)c1ccccc1COc1nc(Cl)c(C(F)(F)F)cc1Cl`, the Activity (in experiment [21]; in the experiment on Pyricularia oryzae [27]; in experiment [1]; with Pyricularia oryzae [23]; in the experiment with Botrytis cinerea [30]; in the experiment with Botrytis cinerea [25]) was 90% in each case. For the same compound, the Activity (in the experiment on Podosphaera fuliginea [15]; in [17]; in the experiment on Podosphaera fuliginea [19]; in [20]) was 90% throughout.

Turning to `CNC(=O)/C(=N\OC)c1ccccc1COc1cccc(C(F)(F)F)n1`, the Activity (with Pyricularia oryzae [27]; in experiment [1]; in experiment [35]; in the experiment on Pyricularia oryzae [23]; in experiment [28]; in the experiment with Podosphaera fuliginea [36]) was 90% throughout. Also, the Activity was 90% in the experiment with Botrytis cinerea [3], 90% in the experiment on Podosphaera fuliginea [37], below 90% in the experiment on Botrytis cinerea [7] and 90% in [8].

Regarding `CNC(=O)/C(=N/OC)c1ccccc1COc1ccccn1`, the Activity in [21] is on record as 90%; in experiment [1] it was 90%; in experiment [35] it was 90%; with Podosphaera fuliginea [36] it was 90%; in the experiment with Botrytis cinerea [24], 90%; in the experiment on Pyricularia oryzae [4], below 90%. In addition, the Activity in the experiment with Botrytis cinerea [25] is 90%; in [5], 90%; with Pyricularia oryzae [9], below 90%; in the experiment with Podosphaera fuliginea [10], 90%.

As for `CNC(=O)/C(=N/OC)c1ccccc1COc1ccc(Cl)cn1`, the Activity (in experiment [21]; in the experiment on Pyricularia oryzae [23]; in experiment [28]; in the experiment on Podosphaera fuliginea [34]; with Podosphaera fuliginea [36]; in the experiment on Botrytis cinerea [13]) was 90% each time. For the same compound, the Activity (in the experiment on Botrytis cinerea [16]; in experiment [17]; in [31]; in the experiment with Pyricularia oryzae [9]) was 90% throughout.

As to `CNC(=O)/C(=N/OC)c1ccccc1COc1cccc(OC(C)C)n1`, the Activity is reported as 90% in experiment [38]; 90% with Pyricularia oryzae [27]; below 90% in experiment [1]; 90% in the experiment on Pyricularia oryzae [23]; 90% with Podosphaera fuliginea [34]; 90% with Podosphaera fuliginea [36]. For the same compound, the Activity in the experiment on Botrytis cinerea [3] was 90%; in [5], 90%; in experiment [6] it was 90%; in the experiment on Botrytis cinerea [7], below 90%.

Take `CNC(=O)/C(=N/OC)c1ccccc1COc1nc(Cl)ccc1C(F)(F)F`: the Activity (in experiment [22]; with Botrytis cinerea [33]; in [12]; in the experiment with Botrytis cinerea [30]; in the experiment with Pyricularia oryzae [14]; with Podosphaera fuliginea [15]) was 90% each time. Also, the Activity (in experiment [17]; in the experiment on Pyricularia oryzae [18]; in the experiment with Podosphaera fuliginea [19]; in experiment [20]) was 90% throughout.
